According to patent publication US9221756B2, “Pyrrole derivatives” (priority 2011, dated 2015):
Read-outs that look alike come from different tables or passages of the source.

Key:
pneumolysin = pneumolysin (Streptococcus pneumoniae serotype 2, UniProt Q04IN8); test: Inhibition of the haemolytic activity of pneumolysin (sheep erythrocytes); assay type: cell-based; conditions: class symbols of Table 1
[1] = Conversion of prodrug derivatives to active inhibitors in mouse plasma; assay type: in vitro ADME; conditions: 37° C., 10 μM start, prodrug remaining; for [ ] (μM) t0 min. Prodrug: 0 min; for [ ] (μM) t15 min. Prodrug: 15 min; for [ ] (μM) t30 min. Prodrug: 30 min; for [ ] (μM) t60 min. Prodrug: 60 min; for [ ] (μM) t120 min. Prodrug: 120 min
Procedure: (§1) The samples were then analysed by LC-MS/MS to obtain the amount of active compound appearing and prodrug derivative remaining over time. The mouse plasma assay system is considered to be a good model for human behaviour. Nevertheless data obtained in a human plasma assay system was obtained in some cases.
(§2) Prodrug derivatives were assessed in the mouse and human plasma stability assay at a concentration of 10 μM. Test compounds were diluted in DMSO to a final stock concentration of 10 mM. For the purpose of the assay, the stocks prepared were further diluted in DMSO to a concentration of 400 μM and […] were added to 195 μl of mouse or human plasma (pH 7.4) and then incubated at 37° C. The final concentration of DMSO in the plate was 2.5% (v/v). Reactions were terminated at 0, 15, 30, 60 and 120 min after incubation by adding 400 μl of acetonitrile containing 0.55 μM metoprolol and 1% (v/v) formic acid. The plate was then centrifuged at 3000 rpm, for 45 min, at 4° C. 80 μl of supernatant were transferred into a conical bottom 96 well glass coated plate. 40 μl of water were added prior to analysis for prodrug derivative and active species by LC-MS/MS. This assay was performed by a contract research organisation, Cyprotex Discovery Limited, UK, at the request of the inventors at Leicester.
(§3) (1) The active compound was quantified using a 6 point calibration curve prepared in deactivated mouse and human plasma. (2) The percentage of parent compound remaining at each time point relative to 0 min sample was calculated from LC-MS/MS peak area ratios (compound peak area/internal standard peak area). This percentage was then used to determine the concentration of the parent compound at each time point in reference to the starting concentration (10 μM) at time 0 min.

[2] = assay type: in vitro ADME; conditions: human plasma, 37° C., 10 μM start, prodrug remaining; for [ ] (μM) t0 min. Prodrug (Human): 0 min; for [ ] (μM) t15 min. Prodrug (Human): 15 min; for [ ] (μM) t30 min. Prodrug (Human): 30 min; for [ ] (μM) t60 min. Prodrug (Human): 60 min; for [ ] (μM) t120 min. Prodrug (Human): 120 min
Procedure: as §1, §2, §3

[3] = IC50, inhibition of pneumolysin-induced haemolysis of sheep erythrocytes
[4] = inhibition of pneumolysin-induced haemolysis of sheep erythrocytes

pneumolysin, sequence (Q04IN8 whole entry): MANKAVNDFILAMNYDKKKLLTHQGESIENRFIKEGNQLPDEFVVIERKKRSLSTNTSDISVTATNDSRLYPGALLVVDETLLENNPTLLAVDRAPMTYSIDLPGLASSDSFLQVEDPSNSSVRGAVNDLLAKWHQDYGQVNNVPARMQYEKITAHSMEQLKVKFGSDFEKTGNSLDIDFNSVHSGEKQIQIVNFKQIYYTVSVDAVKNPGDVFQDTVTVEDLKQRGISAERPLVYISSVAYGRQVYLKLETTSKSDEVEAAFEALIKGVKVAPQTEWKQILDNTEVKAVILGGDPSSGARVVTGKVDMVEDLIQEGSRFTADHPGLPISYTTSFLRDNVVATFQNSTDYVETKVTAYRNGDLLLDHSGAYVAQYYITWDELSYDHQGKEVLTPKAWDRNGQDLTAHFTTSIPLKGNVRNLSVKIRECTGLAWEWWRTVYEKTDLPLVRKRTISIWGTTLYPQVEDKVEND

Row | Compound | IC50 (pneumolysin; [3]) | [ ] (μM) t0 min. Prodrug [1] | [ ] (μM) t15 min. Prodrug [1] | [ ] (μM) t30 min. Prodrug [1] | [ ] (μM) t60 min. Prodrug [1] | [ ] (μM) t120 min. Prodrug [1] | [ ] (μM) t0 min. Prodrug (Human) [2] | [ ] (μM) t15 min. Prodrug (Human) [2] | [ ] (μM) t30 min. Prodrug (Human) [2] | [ ] (μM) t60 min. Prodrug (Human) [2] | [ ] (μM) t120 min. Prodrug (Human) [2] | IC50 (pneumolysin; inhibition of pneumolysin-induced haemolysis of sheep erythrocytes, read-out: IC50) | IC50 (pneumolysin; [4])
1 | CCOC(=O)c1c(O)c(OP(=O)(O)O)c(C(=O)N(C)C)n1-c1ccc(OC)cc1 [UL1-070, ethyl 5-(dimethylcarbamoyl)-3-hydroxy-1-(4-methoxyphenyl)-4-(phosphonooxy)-1H-pyrrole-2-carboxylate] | 20 to 60 µM | 10 µM | 6.40 µM | 4.73 µM | 2.43 µM | 0.93 µM | 10 µM | 8.02 µM | 8.28 µM | 7.70 µM | 7.48 µM |  | 
2 | CCOC(=O)c1c(OP(=O)(OCC)OCC)c(O)c(C(=O)N(C)C)n1-c1ccc(OC)cc1 [UL1-094, ethyl 3-((diethoxyphosphoryl)oxy)-5-(dimethylcarbamoyl)-4-hydroxy-1-(4-methoxyphenyl)-1H-pyrrole-2-carboxylate] |  | 10 µM | 9.99 µM | 9.22 µM | 8.78 µM | 8.49 µM |  |  |  |  |  | 20 to 60 µM | 
3 | CCOC(=O)c1c(OC(=O)C(C)C)c(OC(=O)C(C)C)c(C(=O)N(C)C)n1-c1ccc(OCCOCCOCCOC)cc1 [UL1-098, 2-(dimethylcarbamoyl)-5-(ethoxycarbonyl)-1-(4-(2-(2-(2-methoxyethoxy)ethoxy)ethoxy)phenyl)-1H-pyrrole-3,4-diyl bis(2-methylpropanoate)] |  | 10 µM | 0 µM | 0 µM | 0 µM | 0 µM | 10 µM | 5.42 µM | 3.45 µM | 1.76 µM | 0.65 µM |  | > 60 µM
4 | CCOC(=O)c1c(OC(=O)CCOCCOC)c(OC(=O)CCOCCOC)c(C(=O)N(C)C)n1-c1ccc(OC)cc1 [UL1-105, 2-(dimethylcarbamoyl)-5-(ethoxycarbonyl)-1-(4-methoxyphenyl)-1H-pyrrole-3,4-diyl bis(3-(2-methoxyethoxy)propanoate)] | < 10 µM | 10 µM | 0 µM | 0 µM | 0 µM | 0 µM |  |  |  |  |  |  | 
5 | CCOC(=O)c1c(O)c(OCOP(=O)(O)O)c(C(=O)N(C)C)n1-c1ccc(OC)cc1 [UL1-109, ethyl 5-(dimethylcarbamoyl)-3-hydroxy-1-(4-methoxyphenyl)-4-((phosphonooxy)methoxy)-1H-pyrrole-2-carboxylate] |  | 10 µM | 6.87 µM | 4.84 µM | 2.45 µM | 0.73 µM | 10 µM | 6.22 µM | 5.37 µM | 3.39 µM | 1.72 µM |  | > 60 µM
6 | CCOC(=O)c1c(OC(=O)C(C)(C)COCCCOP(=O)(O)O)c(OC(=O)C(C)(C)COCCCOP(=O)(O)O)c(C(=O)N(C)C)n1-c1ccc(OC)cc1 [UL1-118, 2-(dimethylcarbamoyl)-5-(ethoxycarbonyl)-1-(4-methoxyphenyl)-1H-pyrrole-3,4-diyl bis(2,2-dimethyl-3-(3-(phosphonooxy)propoxy)propanoate)] | < 10 µM | 10 µM | 6.04 µM | 4.00 µM | 1.68 µM | 0.23 µM |  |  |  |  |  |  | 
